Data: a compilation of properties of binary mixtures (doi:10.1590/0104-6632.20180352s20160280)

Assay: xn = mol fraction of the nth substance listed
Settings: 100 kPa

O=C[O-].OCC[NH2+]CCO + O
viscosity [mPa·s]
Settings | x1 = 0.0292 | x1 = 0.075 | x1 = 0.1516 | x1 = 0.2184 | x1 = 0.3185 | x1 = 0.5155 | x1 = 0.5932 | x1 = 0.7378 | x1 = 0.7987 | x1 = 1
293.15 K | 1.69 | – | 8.2 | 16.1 | – | 112 | 133 | 243 | 329 | –
303.15 K | – | 2.5 | 5.9 | 11 | 23.2 | 65 | 76 | 132 | – | 242
313.15 K | 1.1 | – | 4.48 | 8 | 15.8 | 40.7 | 46.6 | 77 | 99 | 135
323.15 K | 0.93 | 1.64 | 3.51 | 6 | 11.3 | 27.1 | 30.6 | 49 | 61 | 82
333.15 K | 0.8 | 1.38 | 2.82 | 4.68 | – | 19 | 21.2 | 32.8 | – | 53
343.15 K | 0.7 | 1.18 | 2.33 | 3.75 | 6.5 | 13.9 | – | 23 | 27.8 | –

O + O=C[O-].OCC[NH2+]CCO
x2 = 0
Settings | viscosity [mPa·s]
293.15 K | 1
303.15 K | 0.82
333.15 K | 0.5
343.15 K | 0.451
